Activity calls are given as the source filed them. The rule behind the calls is not given here.

The test system of series [1] is Mus musculus. Briefly: Neurotoxicity in ip dosed albino CF1 mouse assessed as minimum dose required to cause toxicity after 0.5 hrs by rotarod test. Format: organism-based. The conditions noted are these: in vivo. In general terms: Falling from the rotarod earlier than controls is read as motor impairment.
In series [2] the test system is Mus musculus. The series is described as follows: Neurotoxicity in albino CF1 mouse assessed as minimal motor impairment at 30 mg/kg, ip after 0.5 hrs by rotarod test. It counts as toxicity, organism-based. The arrangement: dose 30 mg/kg, route intraperitoneal. Particulars: in vivo.
Series [3] deals with Mus musculus. Briefly: Anticonvulsant activity in albino CF1 mouse assessed as protection against maximal electroshock-induced seizures at 100 mg/kg, ip after 0.5 hrs. The arrangement: dose 100 mg/kg. It counts as functional, organism-based. In general terms: The maximal electroshock test induces tonic seizures with an electrical stimulus.
The subject of series [4] is Mus musculus. Briefly: Anticonvulsant activity against subcutaneous metrazole-induced seizures in ip dosed albino CF1 mouse assessed as minimum effective dose after 4 hrs. It counts as functional. Particulars: albino CF1, 4 h, read-out: MED.
Series [5] has as its system Mus musculus. Briefly: Neurotoxicity in albino CF1 mouse assessed as minimal motor impairment at 30 mg/kg, ip after 4 hrs by rotarod test. The arrangement: dose 30 mg/kg, route intraperitoneal. Particulars: in vivo. It counts as toxicity, organism-based.
Series [6] concerns Mus musculus. The series is described as follows: Neurotoxicity in albino CF1 mouse assessed as minimal motor impairment at 100 mg/kg, ip after 4 hrs by rotarod test. It counts as toxicity, organism-based. Also noted: dose 100 mg/kg, route intraperitoneal. The conditions noted are these: in vivo.
Series [7] relates to Mus musculus. The series is described as follows: Anticonvulsant activity in albino CF1 mouse assessed as protection against maximal electroshock-induced seizures at 100 mg/kg, ip after 4 hrs. It counts as functional, organism-based. The arrangement: dose 100 mg/kg.
In series [8] the test system is Mus musculus. The series is described as follows: Anticonvulsant activity in albino CF1 mouse assessed as protection against maximal electroshock-induced seizures at 300 mg/kg, ip after 0.5 hrs. It counts as functional, organism-based. The arrangement: dose 300 mg/kg.
The test system of series [9] is Mus musculus. The series is described as follows: Anticonvulsant activity in albino CF1 mouse assessed as protection against subcutaneous metrazole-induced seizures at 30 mg/kg, ip after 0.5 hrs. It counts as functional, organism-based. The arrangement: dose 30 mg/kg.
Series [10] deals with Mus musculus. The series is described as follows: Anticonvulsant activity in albino CF1 mouse assessed as protection against subcutaneous metrazole-induced seizures at 30 mg/kg, ip after 4 hrs. It counts as functional, organism-based. Also noted: dose 30 mg/kg.
Series [11] deals with Mus musculus. Briefly: Anticonvulsant activity in albino CF1 mouse assessed as protection against subcutaneous metrazole-induced seizures at 100 mg/kg, ip after 0.5 hrs. It counts as functional, organism-based. Also noted: dose 100 mg/kg.
In series [12] the test system is Mus musculus. The series is described as follows: Anticonvulsant activity in albino CF1 mouse assessed as protection against subcutaneous metrazole-induced seizures at 100 mg/kg, ip after 4 hrs. Format: functional, organism-based. The arrangement: dose 100 mg/kg.
The test system of series [13] is Mus musculus. Briefly: Anticonvulsant activity in albino CF1 mouse assessed as protection against subcutaneous metrazole-induced seizures at 300 mg/kg, ip after 0.5 hrs. Format: functional, organism-based. Also noted: dose 300 mg/kg.
Series [14] concerns Mus musculus. The series is described as follows: Anticonvulsant activity in albino CF1 mouse assessed as protection against subcutaneous metrazole-induced seizures at 300 mg/kg, ip after 4 hrs. The arrangement: dose 300 mg/kg. Format: functional, organism-based.
Series [15] concerns Mus musculus. The series is described as follows: Neurotoxicity in albino CF1 mouse assessed as minimal motor impairment at 30 to 300 mg/kg, po after 4 hrs by rotarod test. The arrangement: dose 30-300 mg/kg, route oral. The conditions noted are these: in vivo. Format: toxicity, organism-based.
The test system of series [16] is Mus musculus. The series is described as follows: Anticonvulsant activity in albino CF1 mouse assessed as protection against maximal electroshock-induced seizures at 30 mg/kg, ip after 0.5 hrs. The arrangement: dose 30 mg/kg. It counts as functional, organism-based.
Series [17] relates to Mus musculus. The series is described as follows: Anticonvulsant activity in albino CF1 mouse assessed as protection against maximal electroshock-induced seizures at 30 mg/kg, ip after 4 hrs. It counts as functional, organism-based. Also noted: dose 30 mg/kg.
Series [18] concerns Mus musculus. The series is described as follows: Neurotoxicity in ip dosed albino CF1 mouse assessed as minimum dose required to cause toxicity after 4 hrs by rotarod test. It counts as organism-based. Particulars: in vivo.
In series [19] the test system is Mus musculus. The series is described as follows: Anticonvulsant activity against maximal electroshock-induced seizures in ip dosed albino CF1 mouse assessed as minimum effective dose after 0.5 hrs. Particulars: read-out: MED. It counts as functional.
For series [20], the system named is Mus musculus. Briefly: Anticonvulsant activity against maximal electroshock-induced seizures in ip dosed albino CF1 mouse assessed as minimum effective dose after 4 hrs. It counts as functional. The conditions noted are these: read-out: MED.
In series [21] the test system is Mus musculus. Briefly: Anticonvulsant activity against subcutaneous metrazole-induced seizures in ip dosed albino CF1 mouse assessed as minimum effective dose after 0.5 hrs. The conditions noted are these: albino CF1, 0.5 h, read-out: MED. Format: functional.
The test system of series [22] is Mus musculus. Briefly: Neurotoxicity in albino CF1 mouse assessed as minimal motor impairment at 30 to 300 mg/kg, ip after 0.5 hrs by rotarod test. Particulars: in vivo.
Series [23] has as its system Mus musculus. Briefly: Neurotoxicity in albino CF1 mouse assessed as minimal motor impairment at 300 mg/kg, ip after 4 hrs by rotarod test. The conditions noted are these: in vivo. The arrangement: dose 300 mg/kg, route intraperitoneal. Format: toxicity, organism-based.
For series [24], the system named is Mus musculus. Briefly: Anticonvulsant activity in albino CF1 mouse assessed as protection against maximal electroshock-induced seizures at 300 mg/kg, ip after 4 hrs. It counts as functional, organism-based. Also noted: dose 300 mg/kg.
Series [25] has as its system Mus musculus. The series is described as follows: Neurotoxicity in albino CF1 mouse assessed as minimal motor impairment at 100 mg/kg, ip after 0.5 hrs by rotarod test. It counts as toxicity, organism-based. Also noted: dose 100 mg/kg, route intraperitoneal. Particulars: in vivo.

Consider `c1ccc(-c2c[nH]c(-c3ccsc3)n2)cc1`, for which the results for the MED with Mus musculus [1] and in the series on Mus musculus [18] were 100 mg/kg and more than 300 mg/kg, respectively. The Activity result in the series with Mus musculus [2], with Mus musculus [5], with Mus musculus [6], in the series with Mus musculus [15] and with Mus musculus [22] was “Non-toxic” in each case. Besides, the outcome with Mus musculus [3] and in the series with Mus musculus [8] was Active. Further, the minimal effective dose is more than 300 mg/kg in the series on Mus musculus [4], 100 mg/kg in the series on Mus musculus [19], more than 300 mg/kg in the series on Mus musculus [20] and more than 300 mg/kg in the series with Mus musculus [21]. In addition, the result with Mus musculus [7], with Mus musculus [9], with Mus musculus [10], in the series with Mus musculus [11], in the series with Mus musculus [12] and with Mus musculus [13] was inactive. Further, the outcome with Mus musculus [14], in the series on Mus musculus [16] and with Mus musculus [17] was inactive.

In the case of `c1ccc(-c2c[nH]c(C3CCCCC3)n2)cc1`, the MED with Mus musculus [1] was 100 mg/kg; with Mus musculus [18] it was more than 300 mg/kg. Also, the Activity entry in the series with Mus musculus [2], in the series with Mus musculus [5], with Mus musculus [6], in the series on Mus musculus [23], in the series with Mus musculus [15] and with Mus musculus [22] was “Non-toxic” in each case. The outcome in the series with Mus musculus [3], in the series with Mus musculus [7], with Mus musculus [24], in the series on Mus musculus [9], in the series on Mus musculus [10] and with Mus musculus [12] was inactive. For the same molecule, the outcome in the series with Mus musculus [16] and with Mus musculus [17] was inactive. Also, the minimal effective dose in the series with Mus musculus [4], with Mus musculus [19], in the series on Mus musculus [20] and with Mus musculus [21] was more than 300 mg/kg each time.

For `c1ccc(-c2c[nH]c(-c3cc4ccccc4o3)n2)cc1`, the MED in the series on Mus musculus [1] and in the series with Mus musculus [18] was more than 300 mg/kg each time. Also, the Activity result with Mus musculus [2], with Mus musculus [5], in the series on Mus musculus [6], with Mus musculus [15] and in the series on Mus musculus [22] was “Non-toxic” throughout. Moreover, the outcome in the series on Mus musculus [3], with Mus musculus [7], in the series on Mus musculus [8], with Mus musculus [24], in the series on Mus musculus [9] and with Mus musculus [10] was inactive. The result with Mus musculus [11], in the series with Mus musculus [12], in the series on Mus musculus [13], in the series with Mus musculus [14], in the series on Mus musculus [16] and in the series with Mus musculus [17] was inactive. Besides, the minimal effective dose in the series on Mus musculus [4], with Mus musculus [19], in the series on Mus musculus [20] and with Mus musculus [21] was more than 300 mg/kg in each case.

Turning to `Clc1cccc(-c2nc(-c3ccccc3)c[nH]2)c1`, the MED in the series with Mus musculus [1] is 100 mg/kg; in the series with Mus musculus [18] it was more than 300 mg/kg. Besides, the Activity entry in the series with Mus musculus [2], in the series on Mus musculus [5], in the series on Mus musculus [25], with Mus musculus [6], in the series on Mus musculus [23] and in the series with Mus musculus [15] was “Non-toxic” in each case. In addition, the Activity result in the series on Mus musculus [22] is “Non-toxic”. Besides, the minimal effective dose in the series with Mus musculus [4] was more than 300 mg/kg; in the series on Mus musculus [19], 100 mg/kg; with Mus musculus [20], 100 mg/kg; in the series on Mus musculus [21] it was 100 mg/kg. Also, the outcome in the series with Mus musculus [7], in the series on Mus musculus [9], in the series with Mus musculus [10], in the series with Mus musculus [11], with Mus musculus [12] and in the series on Mus musculus [14] was inactive. Besides, the result in the series with Mus musculus [16] and with Mus musculus [17] was inactive. In addition, the outcome with Mus musculus [8], in the series on Mus musculus [24] and in the series on Mus musculus [13] was Active.

Consider `COc1cccc(-c2nc(-c3ccccc3)c[nH]2)c1`, for which the MED in the series with Mus musculus [1] was more than 30 mg/kg; in the series on Mus musculus [18] it was more than 300 mg/kg. The Activity entry in the series on Mus musculus [2] is reported as “Non-toxic”; in the series with Mus musculus [5] it was “Non-toxic”; in the series on Mus musculus [25] it was “Toxic”; with Mus musculus [6], “Non-toxic”; in the series on Mus musculus [23], “Non-toxic”; in the series on Mus musculus [15] it was “Non-toxic”. Further, the Activity entry in the series with Mus musculus [22] was “Non-toxic”. Besides, the result in the series on Mus musculus [3], in the series on Mus musculus [8] and in the series with Mus musculus [24] was Active. Moreover, the minimal effective dose in the series on Mus musculus [4] is more than 300 mg/kg; with Mus musculus [19], more than 30 mg/kg; in the series on Mus musculus [20], 100 mg/kg; in the series on Mus musculus [21], more than 300 mg/kg. Besides, the outcome in the series on Mus musculus [9], with Mus musculus [10], in the series with Mus musculus [11], with Mus musculus [12], in the series with Mus musculus [16] and in the series with Mus musculus [17] was inactive.

With `FC(F)(F)c1ccc(-c2c[nH]c(-c3ccccc3)n2)cc1`, the MED in the series on Mus musculus [1] and in the series with Mus musculus [18] was 100 mg/kg in each case. Besides, the Activity entry with Mus musculus [2] was “Non-toxic”; in the series with Mus musculus [5], “Non-toxic”; with Mus musculus [6], “Non-toxic”; in the series with Mus musculus [23], “Toxic”; in the series with Mus musculus [15], “Non-toxic”; in the series on Mus musculus [22] it was “Non-toxic”. Moreover, the minimal effective dose with Mus musculus [4] was 100 mg/kg; with Mus musculus [19], 100 mg/kg; in the series on Mus musculus [20], more than 300 mg/kg; in the series with Mus musculus [21], more than 300 mg/kg. Moreover, the outcome in the series on Mus musculus [7], with Mus musculus [9], in the series on Mus musculus [10], in the series with Mus musculus [11], in the series on Mus musculus [12] and in the series with Mus musculus [13] was inactive. The outcome in the series with Mus musculus [16] and in the series on Mus musculus [17] was inactive. Further, the outcome in the series on Mus musculus [8] and in the series with Mus musculus [14] was Active.

(Values after ChEMBL document CHEMBL1275354, “Anticonvulsant activity of 2,4(1H)-diarylimidazoles in mice and rats acute seizure models” (Bioorg Med Chem, 2010).)
